Patent publication US20170003277A1 (priority 2015, published 2017)

Test system: THP-1 human monocyte cell line
Experiment: Pathway enrichment (DAVID) in THP-1 study: Copaxone vs mannitol and Probioglat vs GA
Assay type: cell-based
Settings: Copaxone vs mannitol, 6 hours

glatiramer acetate [Copaxone®]
Fold Enrichment: GO: 0003006~reproductive developmental process (top downregulated genes): 6.25
Fold Enrichment: GO: 0007275~multicellular organismal development (top downregulated genes): 2.168
Fold Enrichment: GO: 0009653~anatomical structure morphogenesis (top downregulated genes): 2.643
Fold Enrichment: GO: 0030154~cell differentiation (top downregulated genes): 2.556
Fold Enrichment: GO: 0032502~developmental process (top downregulated genes): 1.984
Fold Enrichment: GO: 0048513~organ development (top downregulated genes): 2.76
Fold Enrichment: GO: 0048731~system development (top downregulated genes): 2.396
Fold Enrichment: GO: 0048856~anatomical structure development (top downregulated genes): 2.165
Fold Enrichment: GO: 0048869~cellular developmental process (top downregulated genes): 2.411
Fold Enrichment: G0: 0001568~blood vessel development (top upregulated genes): 3.472
Fold Enrichment: G0: 0002819~regulation of adaptive immune response (top upregulated genes): 7.067
Fold Enrichment: G0: 0030154~cell differentiation (top upregulated genes): 1.794
Fold Enrichment: GO: 0000267~cell fraction (top upregulated genes): 1.993
Fold Enrichment: GO: 0001501~skeletal system development (top upregulated genes): 3.144
Fold Enrichment: GO: 0001525~angiogenesis (top upregulated genes): 4.224
Fold Enrichment: GO: 0001608~nucleotide receptor activity, G-protein coupled (top upregulated genes): 13.87
Fold Enrichment: GO: 0001614~purinergic nucleotide receptor (top upregulated genes): 12.55
Fold Enrichment: GO: 001816~cytokine production (top upregulated genes): 7.526
Fold Enrichment: GO: 0001871~pattern binding (top upregulated genes): 5.244
Fold Enrichment: GO: 0001944~vasculature development (top upregulated genes): 3.428
Fold Enrichment: GO: 0002376~immune system process (top upregulated genes): 2.852
Fold Enrichment: GO: 0002682~regulation of immune system process (top upregulated genes): 3.763
Fold Enrichment: GO: 0002683~negative regulation of immune (top upregulated genes): 5.682
Fold Enrichment: GO: 0002684~positive regulation of immune system process (top upregulated genes): 4.025
Fold Enrichment: GO: 0002694~regulation of leukocyte activation (top upregulated genes): 4.14
Fold Enrichment: GO: 0002697~regulation of immune effector process (top upregulated genes): 6.009
Fold Enrichment: GO: 0002698~negative regulation of immune effector process (top upregulated genes): 15.05
Fold Enrichment: GO: 0002698~positive regulation of response to external stimulus (top upregulated genes): 6.536
Fold Enrichment: GO: 0002703~regulation of leukocyte mediated immunity (top upregulated genes): 7.43
Fold Enrichment: GO: 0002822~regulation of adaptive immune response based on somatic recombination of immune receptors built from immunoglobulin superfamily domains (top upregulated genes): 7.244
Fold Enrichment: GO: 0004222~metalloendopeptidase activity (top upregulated genes): 6.148
Fold Enrichment: GO: 0004871~signal transducer activity (top upregulated genes): 2.537
Fold Enrichment: GO: 0004872~receptor activity (top upregulated genes): 2.976
Fold Enrichment: GO: 0004888~transmembrane receptor activity (top upregulated genes): 3.768
Fold Enrichment: GO: 0004930~G-protein coupled receptor activity (top upregulated genes): 4.293
Fold Enrichment: GO: 0005576~extracellular region (top upregulated genes): 2.824
Fold Enrichment: GO: 0005578~proteinaceous extracellular matrix (top upregulated genes): 5.31
Fold Enrichment: GO: 0005615~extracellular space (top upregulated genes): 3.371
Fold Enrichment: GO: 0005624~membrane fraction (top upregulated genes): 2.128
Fold Enrichment: GO: 0005626~insoluble friction (top upregulated genes): 2.12
Fold Enrichment: GO: 0005886~plasma membrane (top upregulated genes): 2.42
Fold Enrichment: GO: 0005887~integral to plasma membrane (top upregulated genes): 3.25
Fold Enrichment: GO: 0006928~cell motion (top upregulated genes): 2.469
Fold Enrichment: GO: 0006935~chemotaxis (top upregulated genes): 4.651
Fold Enrichment: GO: 0006950~response to stress (top upregulated genes): 1.897
Fold Enrichment: GO: 0006952~defense response (top upregulated genes): 3.418
Fold Enrichment: GO: 0006954~inflammatory response (top upregulated genes): 4.475
Fold Enrichment: GO: 0006955~immune response (top upregulated genes): 3.57
Fold Enrichment: GO: 0007155~cell adhesion (top upregulated genes): 2.948
Fold Enrichment: GO: 0007165~signal transduction (top upregulated genes): 1.567
Fold Enrichment: GO: 0007166~cell surface receptor linked signal transduction (top upregulated genes): 2.246
Fold Enrichment: GO: 0007186~G-protein coupled receptor protein signaling pathway (top upregulated genes): 2.726
Fold Enrichment: GO: 0007275~multicellular organismal development (top upregulated genes): 1.742
Fold Enrichment: GO: 0007610~behavior (top upregulated genes): 2.76
Fold Enrichment: GO: 0007626~locomotory behavior (top upregulated genes): 4.081
Fold Enrichment: GO: 0009605~response to external stimulus (top upregulated genes): 3.127
Fold Enrichment: GO: 0009607~response to biotic stimulus (top upregulated genes): 3.376
Fold Enrichment: GO: 0009611~response to wounding (top upregulated genes): 4.097
Fold Enrichment: GO: 0009617~response to bacterium (top upregulated genes): 4.268
Fold Enrichment: GO: 0009897~external side of plasma membrane (top upregulated genes): 6.497
Fold Enrichment: GO: 0009986~cell surface (top upregulated genes): 4.067
Fold Enrichment: GO: 0010033~response to organic substance (top upregulated genes): 2.03
Fold Enrichment: GO: 0016020~membrane (top upregulated genes): 1.538
Fold Enrichment: GO: 0016021~integral to membrane (top upregulated genes): 1.676
Fold Enrichment: GO: 0016477~cell migration (top upregulated genes): 3.203
Fold Enrichment: GO: 0016502~nucleotide receptor activity (top upregulated genes): 12.55
Fold Enrichment: GO: 0019955~cytokine binding (top upregulated genes): 6.971
Fold Enrichment: GO: 0022610~biological adhesion (top upregulated genes): 2.94
Fold Enrichment: GO: 0030247~polysaccharide binding (top upregulated genes): 5.244
Fold Enrichment: GO: 0030574~collagen cataboltc process (top upregulated genes): 20.7
Fold Enrichment: GO: 0031012~extracellular matrix (top upregulated genes): 5.017
Fold Enrichment: GO: 0031224~intrinsic to membrane (top upregulated genes): 1.684
Fold Enrichment: GO: 0031226~intrinsic to plasma membrane (top upregulated genes): 3.268
Fold Enrichment: GO: 0031347~regulation of defense response (top upregulated genes): 5.519
Fold Enrichment: GO: 0031349~positive regulation of defense response (top upregulated genes): 6.758
Fold Enrichment: GO: 0031960~response to corticosteroid stimulus (top upregulated genes): 6.623
Fold Enrichment: GO: 0032101~regulation of response to external stimulus (top upregulated genes): 6.288
Fold Enrichment: GO: 0032496~response to lipopolysaccharide (top upregulated genes): 5.682
Fold Enrichment: GO: 0032502~developmental process (top upregulated genes): 1.643
Fold Enrichment: GO: 0032879~regulation of localization (top upregulated genes): 2.359
Fold Enrichment: GO: 0040011~locomotion (top upregulated genes): 3.21
Fold Enrichment: GO: 0042221~response to chemical stimulus (top upregulated genes): 1.879
Fold Enrichment: GO: 0042330~taxis (top upregulated genes): 4.651
Fold Enrichment: GO: 0044243~multicellular organismal catabolic process (top upregulated genes): 20.7
Fold Enrichment: GO: 0044421~extracellular region part (top upregulated genes): 3.61
Fold Enrichment: GO: 0044425~membrane part (top upregulated genes): 1.539
Fold Enrichment: GO: 0044459~plasma membrane part (top upregulated genes): 2.404
Fold Enrichment: GO: 0045028~purinergic nudeotide receptor activity, G-protein coupled (top upregulated genes): 13.87
Fold Enrichment: GO: 0045595~regulation of cell differentiation (top upregulated genes): 2.517
Fold Enrichment: GO: 0046903~secretion (top upregulated genes): 3.164
Fold Enrichment: GO: 0048513~organ development (top upregulated genes): 1.846
Fold Enrichment: GO: 0048514~blood vessel morphogenesis (top upregulated genes): 3.398
Fold Enrichment: GO: 0048518~positive regulation of biological process (top upregulated genes): 1.559
Fold Enrichment: GO: 0048519~negative regulation of biological process (top upregulated genes): 1.629
Fold Enrichment: GO: 0048545~response to steroid hormone stimulus (top upregulated genes): 4.216
Fold Enrichment: GO: 0048583~regulation of response to stimulus (top upregulated genes): 3.613
Fold Enrichment: GO: 0048584~positive regulation of response to stimulus (top upregulated genes): 3.79
Fold Enrichment: GO: 0048731~system development (top upregulated genes): 1.918
Fold Enrichment: GO: 0048856~anatomical structure development (top upregulated genes): 1.792
Fold Enrichment: GO: 0048869~cellular developments process (top upregulated genes): 1.736
Fold Enrichment: GO: 0048870~cell motility (top upregulated genes): 2.99
Fold Enrichment: GO: 0050727~regulation of inflammatory response (top upregulated genes): 8.87
Fold Enrichment: GO: 0050729~positive regulation of inflammatory response (top upregulated genes): 11.5
Fold Enrichment: GO: 0050776~regulation of immune response (top upregulated genes): 4.293
Fold Enrichment: GO: 0050793~regulation of developmental process (top upregulated genes): 3.161
Fold Enrichment: GO: 0050864~regulation of B cell activation (top upregulated genes): 8.565
Fold Enrichment: GO: 0050865~regulation of cell activation (top upregulated genes): 4.296
Fold Enrichment: GO: 0050867~positive regulation of cell activation (top upregulated genes): 4.664
Fold Enrichment: GO: 0050896~response to stimulus (top upregulated genes): 1.852
Fold Enrichment: GO: 0051239~regulation of multicellular organismal process (top upregulated genes): 2.792
Fold Enrichment: GO: 0051241~negative regulation of multicellular organismal (top upregulated genes): 4.902
Fold Enrichment: GO: 0051270~regulation of cell motion (top upregulated genes): 3.643
Fold Enrichment: GO: 0051384~response to glucocorticoid stimulus (top upregulated genes): 7.046
Fold Enrichment: GO: 0051674~localization of cell (top upregulated genes): 2.99
Fold Enrichment: GO: 0051704~multi-organism process (top upregulated genes): 2.223
Fold Enrichment: GO: 0051707~response to other organism (top upregulated genes): 4.426
Fold Enrichment: GO: 0060089~molecular transducer activity (top upregulated genes): 2.537
Fold Enrichment: GO: 0065007~biological regulation (top upregulated genes): 1.236
Fold Enrichment: GO: 0065008~regulation of biological quality (top upregulated genes): 2.067
Fold Enrichment: GO: 0080134~regulation of response to stress (top upregulated genes): 3.7
Fold Enrichment: GO: 00322501~multicellular organismal process (top upregulated genes): 1.77
Fold Enrichment: GO: 00550878~regulation of body fluid levels (top upregulated genes): 4.87
Fold Enrichment: hsa04060:Cytokine-cytokine receptor interaction (top upregulated genes): 3.911
